Results reported in patent US5242945A, “Tetronic and thiotetronic acid derivatives as phospholipase A2 inhibitors” (American Home Products Corporation, priority 1991, dated 1993).
Like-named read-outs stand apart in the source and are kept apart here.

Tests used:
[1] = target: T1, human synovial fluid PLA2 (Homo sapiens, UniProt P14555); test: in vitro isolated phospholipase A2 assay, human synovial fluid PLA2; type: biochemical; settings: for IC50: Table IV, read-out: IC50 HSF (human synovial fluid); for inhibition at 10 µM: + values given without explanation, read-out: % Inhibition HSF (human synovial fluid)
T1 construct: Purified human synovial fluid; from tissue; host or cells: human synovial fluid
T1 sequence (P14555 21-144): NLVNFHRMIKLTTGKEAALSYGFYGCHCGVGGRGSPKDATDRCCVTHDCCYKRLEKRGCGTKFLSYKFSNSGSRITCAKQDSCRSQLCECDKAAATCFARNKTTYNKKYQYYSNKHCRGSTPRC
Method in brief: (§1)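 PLA2 from semipurified human platelet acid extract or purified human synovial fluid, preincubated 30 min at room temperature with compound. ³H-arachidonate-labelled E. coli substrate then added in Tris-HCl pH 7.5, with enzyme giving about 12% hydrolysis. Reaction ran 10 min at 37° C; released arachidonic acid recovered on NH2 columns and measured by β-counting.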

5-lipoxygenase (LTC4) = test: resident murine peritoneal macrophage assay, LTC4; type: cell-based, mouse (Swiss Webster); settings: for IC50: read-out: LTC4 zymosan IC50; for LTC4 AA % Inhibition: arachidonic acid stimulation
Description: The ability of the compounds of the invention to act as inhibitors of the enzymes 5-lipoxygenase and cyclooxygenase is measured in the resident murine peritoneal macrophage assay.
Resident peritoneal macrophages are collected from female Swiss Webster mice (49 days old, 20-25 gms, Buckshire) by lavaging with 7-8 ml Hanks Balanced Salt Solution (HBSS) without Ca^++ and Mg^++ (GIBCO). The lavage fluid from several mice is pooled and centrifuged at 4° C. for 10 minutes at 400 xg.
Residual serum and cellular debris are removed from the monolayers by washing 3× with 2 ml HBSS containing Ca^++ and Mg^++. Macrophages are preincubated for 5 minutes with 1 ml serum-free M199 containing 10 μl dimethyl sulfoxide (DMSO) vehicle or test compound prior to cell activation with zymosan ([…]) or arachidonic acid (AA) (2 μM). After 2 hours, the supernatants are removed and either assayed for LTC4 and PGE2 by radioimmunoassay (RIA) directly or stored at -20° C. In all cases, results are expressed as ng metabolite/4×10^6 cells.
Raw data (dpm) may be stored directly onto an "Autostart" tape using the HP85 in room C-096. The raw data are converted to ng metabolite/4-10^6cells using the standard curve by a "RIANAL" program (HP85) or a "NONLIN" program (HP9816). Results are then expressed as percent inhibition of zymosan induced, leukotriene or prostaglandin synthesis (control) using the equation: [formula]

human platelet PLA2 = target: T2, human platelet PLA2 (Homo sapiens, UniProt P14555); test: in vitro isolated phospholipase A2 assay, human platelet PLA2; type: biochemical; settings: for inhibition at 10 µM: + values given without explanation, read-out: % Inhibition HP (human platelet); for IC50: Table IV, read-out: IC50 HP (human platelet)
T2 construct: platelet acid extract PLA2; from tissue; host or cells: human platelets, semipurified acid extract
T2 sequence (P14555 21-144): T1 sequence (P14555 21-144)
Method in brief: as §1

[2] = tested on: cyclooxygenase (PGE2 or TxB2 synthesis); test: inhibition of synthesis of cyclooxygenase products PGE2 and TxB2 by rat polymorphonuclear leukocytes; type: cell-based, rat (female Wistar); settings: Leukocyte, rat PMN; for inhibition at 10 µM: + with * denotes potentiation
Description: (§2) Rat polymorphonuclear leukocytes (PMNs) are obtained from female Wistar rats (150-200 g) which receive an injection of 6% glycogen (10 ml i.p.). Rats are sacrificed 18-24 hours post injection by CO2 asphyxiation and the elicited cells are harvested by peritoneal lavage using physiological saline (0.9% NaCl). The exudate is centrifuged at 400 xg for 10 minutes. The supernatant fluid is discarded and the cell pellet is resuspended to a concentration of 2.0×10^7 cells/mL in HBSS containing Ca^++ and Mg^++ and 10 μM L-cysteine.
(§3) To 1 mL aliquots of cell suspension, test drugs or vehicle are added, then preincubated at 37° C. for 10 minutes. A23187 (1 μM), [^3 H]-AA (3.0 μCi/mL) and unlabeled AA (1 μM) are then added and the samples are further incubated for 10 minutes. The reaction is terminated by centrifugation and pelleting cells. Supernatants are then analyzed by HPLC analysis on a 15 cm×4.6 mm ID supelcosil LC-18 (Supelco)(3M) column, using a two solvent system at a flow rate of 1.4 mL total flow as follows:
In this assay, the procedure of Example 58 is carried out as described. However, in order to determine cyclooxygenase activity, the samples are co-chromatographed with authentic reference [^3 H]-TxB2 or [^3 H]-PGE2.
The results are calculated as in Example 58 and presented below: […]

[3] = tested on: lipoxygenase (LTB4 or 5HETE synthesis); test: inhibition of LTB4 and 5-HETE synthesis by rat glycogen-elicited polymorphonuclear leukocytes; type: cell-based, rat (female Wistar); settings: Leukocyte, rat PMN; for inhibition at 10 µM: + with * denotes potentiation
Description: This is especially true with respect to 5,12-diHETE, which is also denoted as LTB4 [see Ford-Hitchinson, J. Roy. Soc. Med., 74, 831 (1981)]. Compounds which inhibit the PLA2 -mediated release of arachidonic acid thereby effectively prevent the oxidation of arachidonic acid to the various leukotriene products via the lipoxygenase cascade. Accordingly, the specificity of action of PLA2 inhibitors can be determined by the activity of test compounds in this assay, which measures the ability of compounds to inhibit the synthesis of LTB4 and 5-HETE by rat glycogen-elicited polymorphonuclear leukocytes (PMN) in the presence of exogenous substrate.
as §2, §3
Injections: 140 μL of each supernatant is injected directly onto column and ^3 H arachidonic acid metabolites are monitored using an on-line radioactivity detector (Ramona, IN/US, Fairfield, N.J.).
Co-chromatography with standard [^3 H] leukotriene B4 (LTB4) in medium of stimulated PMN exposed to drug is compared to that found in medium of stimulated cells exposed to no drug, generating percent inhibition.
Results are expressed as percent inhibition at a given compound dose or as an IC50 value.

[4] = Mus musculus, Peritoneal macrophage, zymosan stimulation

Compound	IC50 [1] [nM]	inhibition at 10 µM [1] [%]	IC50 (5-lipoxygenase (LTC4); [4]) [nM]	inhibition at 10 µM (human platelet PLA2) [%]	further results
CCCCCCCCCC(=O)C1=C(O)COC1=O [Example 1, 4-Hydroxy-3-(1-oxodecyl)-2(5H)-furanone]	10800	35.1	2000	14.9	inhibition at 50 µM ([2]; at 50 μM): 71%; inhibition at 50 µM ([3]; at 50 μM): 60%
CCCCCCCC/C=C\CCCCCCCC(=O)C1=C(O)COC1=O [Example 9, (Z)-4-Hydroxy-3-(1-oxo-9-octadecenyl)-2(5H)-furanone]	1100	97.3	200	18.5	LTC4 AA % Inhibition (5-lipoxygenase (LTC4); dose 0.3 (unit not given)): 8%; inhibition at 10 µM ([2]; read-out: % Inhibition TxB2): 31%; inhibition at 10 µM ([3]; read-out: % Inhibition LTB4): 1%
CCCCC/C=C\C/C=C\CCCCCCCC(=O)C1=C(O)COC1=O [Example 14, (Z,Z)-4-Hydroxy-3-(1-oxo-9,12-octadecadienyl)-2(5H)-furanone]	480	95	–	44	LTC4 AA % Inhibition (5-lipoxygenase (LTC4); dose 5 (unit not given)): 61%; IC50 (human platelet PLA2): 1700 nM
CC/C=C\C/C=C\C/C=C\CCCCCCCC(=O)C1=C(O)COC1=O [Example 15, (Z,Z,Z)-4-Hydroxy-3-(1-oxo-9,12,15-octadecatrienyl)-2(5H)-furanone]	–	77.5	450	30	–
CCCCCCCCCCC/C=C\CCCCC(=O)C1=C(O)COC1=O [Example 18, (Z)-4-Hydroxy-3-(1-oxo-6-octadecenyl)-2(5H)-furanone]	–	9	160	46	LTC4 AA % Inhibition (5-lipoxygenase (LTC4); dose 0.3 (unit not given)): -6%
CCCCC/C=C\C/C=C\C/C=C\CCCCC(=O)C1=C(O)COC1=O [Example 20, (Z,Z,Z)-4-Hydroxy-3-(1-oxo-6,9,12-octadecatrienyl)-2(5H)-furanone]	–	81	700	62	LTC4 AA % Inhibition (5-lipoxygenase (LTC4); dose 1.0 (unit not given)): -51%
CCCCCC1CC1CC1CC1CCCCCCCC(=O)C1=C(O)COC1=O (stereo not shown) [Example 22, 4-Hydroxy-3-[1-oxo-8-[2-[(2-pentylcyclopropyl)methyl]cyclopropyl]octyl]-2(5H)-furanone]	2500	89.8	200	71	IC50 (human platelet PLA2): 13100 nM
CCCC/C=C\CCCCCCCC(=O)C1=C(O)COC1=O [Example 25, 4-Hydroxy-3-((Z)-1-oxo-9-tetradecenyl)-2(5H)-furanone]	33400	28.8	250	58.3	LTC4 AA % Inhibition (5-lipoxygenase (LTC4); dose 0.6 (unit not given)): -4%; IC50 (human platelet PLA2): 26700 nM; inhibition at 10 µM ([2]; read-out: % Inhibition PGE2): 68%; inhibition at 10 µM ([2]; read-out: % Inhibition TxB2): 8%; inhibition at 10 µM ([3]; read-out: % Inhibition 5-HETE): 81%; inhibition at 10 µM ([3]; read-out: % Inhibition LTB4): 8%
O=C(CCCCCCC/C=C\c1ccc(Cl)cc1)C1=C(O)COC1=O [Example 35, 3-[(Z)-10-(4-chlorophenyl)-1-oxo-9-decenyl]-4-hydroxy-2(5H)-furanone]	16000	28.4	300	68.6	IC50 (human platelet PLA2): 7500 nM
CCCCC/C=C\C/C=C\CCCCCCCC(=O)C1=C(O)CSC1=O [Example 46, 4-Hydroxy-3[(Z,Z)-1-oxo-9,12-octadecadienyl]-2(5H)-thiophenone]	–	72	300	16.4	LTC4 AA % Inhibition (5-lipoxygenase (LTC4); dose 0.5 (unit not given)): -9%
CCCCCCCC/C=C\CCCCCCCC(=O)C1=C(O)CSC1=O [Example 47, 4-Hydroxy-3-[(Z)-1-oxo-9-octadecenyl]-2(5H)-thiophenone]	–	34.8	100	13.8	inhibition at 0.1 µM (5-lipoxygenase (LTC4); [4]): 46.2%; LTC4 AA % Inhibition (5-lipoxygenase (LTC4); dose 0.3 (unit not given)): 9%
CCCC/C=C\CCCCCCCC(=O)C1=C(O)CSC1=O [Example 48, 4-Hydroxy-3-[(Z)-1-oxo-9-tetra-decenyl]-2(5H)-thiophenone]	–	50.9	–	1.1	inhibition at 0.1 µM (5-lipoxygenase (LTC4); [4]): 25.3%; inhibition at 1 µM (5-lipoxygenase (LTC4); Mus musculus, Peritoneal macrophage, zymosan stimulation, 1.0 μM): 77.1%; LTC4 AA % Inhibition (5-lipoxygenase (LTC4); dose 0.3 (unit not given)): -5%
CCCCC/C=C\C/C=C\C/C=C\CCCCC(=O)C1=C(O)CSC1=O [Example 50, 4-Hydroxy-3-[(Z,Z,Z)-1-oxo-6,9,12-octadecatrienyl]-2(5H)-thiophenone]	–	55.9	–	14.1	inhibition at 0.1 µM (5-lipoxygenase (LTC4); [4]): 38.8%; inhibition at 0.5 µM (5-lipoxygenase (LTC4); [4]): 48.1%; LTC4 AA % Inhibition (5-lipoxygenase (LTC4); dose 0.5 (unit not given)): -33%
CCCCCCCCCCC/C=C\CCCCC(=O)C1=C(O)CSC1=O [Example 51, 4-Hydroxy-3-[(Z)-1-oxo-6-octadecenyl]-2(5H)-thiophenone]	–	29.4	–	15.2	inhibition at 0.1 µM (5-lipoxygenase (LTC4); [4]): 21.1%; inhibition at 0.5 µM (5-lipoxygenase (LTC4); [4]): 59.4%; LTC4 AA % Inhibition (5-lipoxygenase (LTC4); dose 0.5 (unit not given)): -4%
